From article PMC6684055 (Toxicology letters, 2019)
Several values for one entry are separate records, joined by “and”; a condition that tells them apart may be missing. Equal entries are not always repeated. Entries after “also recorded” stand apart in the source; their conditions may differ. Each block holds one molecule with its values, some of them ahead of it.

Key:
[1] = tested on: human AhR; conditions: cited from earlier work
[2] = tested on: CYP1A1; test: Induction of CYP1A1 catalytic activity in primary human hepatocytes; format: cell-based; conditions: 24 h; for induction of CYP1A1 activity, concentration-response profile (in words): then luciferin-CEE 3 h
[3] = tested on: CYP1A genes; test: Induction of CYP1A genes; conditions: 5 F-HepaRG cells, 24 h, MMI 200 μM; for efficacy of CYP1A genes induction relative to TCDD (100%): TCDD 5 nM
[4] = tested on: CYP1A1; test: Induction of CYP1A1 catalytic activity in LS180 cells; format: cell-based, human; conditions: 24 h, inverse U-shape profile
[5] = tested on: CYP1A1; test: Single concentration inactivation assay; format: biochemical; conditions: human, human liver microsomes, probe Luciferin-CEE
[6] = tested on: CYP1A1 and CYP1A2; test: Expression of CYP1A1 and CYP1A2 mRNAs; format: cell-based, human; conditions: three donors, 24 h, MMI 200 μM, TCDD 5 nM
[7] = Residual MMI in culture media after incubation with primary human hepatocytes; format: in vitro ADME; conditions: 24 h incubation with human hepatocytes, initial 200 μM
[8] = tested on: CYP1A1; conditions: ref Stepankova et al., 2018; cited from earlier work
[9] = molecular target: T1, AhR (Homo sapiens, UniProt P35869); format: cell-based; conditions: AZ-AHR cells, without incubation with hepatocytes
T1 sequence (P35869 11-848): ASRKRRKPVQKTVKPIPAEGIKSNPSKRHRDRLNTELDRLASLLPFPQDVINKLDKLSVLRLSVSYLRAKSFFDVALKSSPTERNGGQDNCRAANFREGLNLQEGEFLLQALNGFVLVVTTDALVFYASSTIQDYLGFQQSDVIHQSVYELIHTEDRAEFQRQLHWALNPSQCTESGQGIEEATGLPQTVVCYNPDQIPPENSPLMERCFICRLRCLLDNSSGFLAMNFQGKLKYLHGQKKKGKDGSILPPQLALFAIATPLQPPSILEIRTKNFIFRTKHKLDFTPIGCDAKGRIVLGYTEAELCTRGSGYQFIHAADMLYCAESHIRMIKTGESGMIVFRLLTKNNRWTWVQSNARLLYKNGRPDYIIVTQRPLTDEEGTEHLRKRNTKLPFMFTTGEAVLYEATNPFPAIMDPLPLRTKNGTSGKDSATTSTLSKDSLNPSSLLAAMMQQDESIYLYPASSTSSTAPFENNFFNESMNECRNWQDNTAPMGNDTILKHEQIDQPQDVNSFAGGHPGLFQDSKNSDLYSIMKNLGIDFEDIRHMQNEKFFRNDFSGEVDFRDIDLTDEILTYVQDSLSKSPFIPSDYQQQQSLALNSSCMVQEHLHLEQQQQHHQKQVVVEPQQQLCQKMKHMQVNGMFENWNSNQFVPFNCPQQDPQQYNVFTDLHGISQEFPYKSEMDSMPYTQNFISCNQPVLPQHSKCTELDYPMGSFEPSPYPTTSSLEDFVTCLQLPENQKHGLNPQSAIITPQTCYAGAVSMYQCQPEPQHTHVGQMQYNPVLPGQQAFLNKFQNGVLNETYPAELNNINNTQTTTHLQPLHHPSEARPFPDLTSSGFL

[10] = tested on: CYP1A2 mRNA; test: CYP1A2 mRNA expression; format: cell-based, human; conditions: 5 F-HepaRG cells, 24 h, TCDD 5 nM, two consecutive passages
[11] = human hepatocytes, MMI 0.1-200 μM

Compound: Cc1cccc2[nH]ccc12 [4-methylindole]
efficacy as AhR agonist compared to 3-methylindole (skatole) ([1]; ref Stepankova et al., 2018): approx. 25 times | induction of CYP1A1 activity, concentration-response profile (in words) [2, 11]: Inverse U-shaped | efficacy of CYP1A genes induction relative to TCDD (100%) [3]: ~100% | concentration at peak of CYP1A1 induction [4]: 25 µM | inhibition at 30 min, 200 μM [5]: 10%

Compound: Cn1ccc2ccccc21 [1-methylindole]
induction of CYP1A1 and CYP1A2 mRNAs and proteins in primary human hepatocytes (in words) [6]: Modest induction | residual MMI in culture media (in words) [7]: no residual MMI was detected | efficacy of CYP1A genes induction relative to TCDD (100%) [3]: 15%

Compound: Cc1cc2ccccc2[nH]1 [2-methylindole]
induction of CYP1A1 and CYP1A2 mRNAs and proteins in primary human hepatocytes (in words) [6]: no effect | activity at AhR (in words) ([1]; ref Stepankova et al., 2018): nearly inactive | induction of CYP1A1 activity, concentration-response profile (in words) [2, 11]: No induction | CYP1A induction in HepaRG cells (in words) [3]: nearly inactive | concentration at peak of CYP1A1 induction [4]: 25 µM

Compound: Cc1c[nH]c2ccccc12 [3-methylindole]
induction of CYP1A1 and CYP1A2 mRNAs and proteins in primary human hepatocytes (in words) [6]: Modest induction | activity at human AhR (in words) ([1]; ref Rasmussen et al., 2016): partial agonist | induction of CYP1A1 activity, concentration-response profile (in words) [2, 11]: No induction

Compound: Clc1cc2c(cc1Cl)Oc1cc(Cl)c(Cl)cc1O2 [TCDD, 2,3,7,8-tetrachlorodibenzo-p-dioxin, reference compound]
induction of CYP1A1 and CYP1A2 mRNAs and proteins in primary human hepatocytes (in words) [6]: strongly induced | induction of CYP1A2 mRNA [10]: 34 fold and 50 fold | induction of CYP1A1 enzyme activity ([2]; human hepatocytes culture Hep200571, TCDD 5 nM): 11 fold | induction of CYP1A1 enzyme activity ([2]; human hepatocytes culture Hep220993, TCDD 5 nM): 153 fold

Continued, in another order:

induction of CYP1A1 activity, concentration-response profile (in words) [2, 11]: Inverse U-shaped | concentration at peak of CYP1A1 induction [4]: 25 µM
Compound: Cc1ccc2cc[nH]c2c1 [6-methylindole]
efficacy as AhR agonist compared to 3-methylindole (skatole) ([1]; ref Stepankova et al., 2018): approx. 25 times

relative efficacy of CYP1A1 activity induction as compared to TCDD [2, 11]: ~ 2% | induction of CYP1A1 activity, concentration-response profile (in words) [2, 11]: Concentration-dependent induction | CYP1A induction in HepaRG cells (in words) [3]: modest CYP1A inducer | efficacy of CYP1A genes induction relative to TCDD (100%) [3]: ~ 20% | AhR agonist activity of parental compound (in words) [9]: weak agonist of AhR
Compound: Cc1cccc2cc[nH]c12 [7-methylindole]
induction of CYP1A1 and CYP1A2 mRNAs and proteins in primary human hepatocytes (in words) [6]: strong inducer; also recorded: very strong inducer | CYP1A induction in LS180 intestinal cells (in words) [8]: modest CYP1A inducer; also recorded: weak inducer

induction of CYP1A1 activity, concentration-response profile (in words) [2, 11]: Inverse U-shaped | efficacy of CYP1A genes induction relative to TCDD (100%) [3]: ~ 20% | inhibition at 30 min, 200 μM [5]: 47%
Compound: Cc1ccc2[nH]ccc2c1 [5-methylindole]
